Reference: patent publication EP2450062A1, “HYDROCOLLOID PLASTERS, INCLUDING VIABLE PROBIOTIC STRAINS OF LACTOBACILLUS SPP. AND USED FOR VARIOUS TYPES OF WOUNDS, INFECTED TISSUES, DRY WOUNDS AND DEEP WOUNDS” (Universidad De Concepcion, priority 2009, dated 2011)

Tested on: Lactobacillus acidophilus LPV 31
Experiment: bactericidal effect of glutaraldehyde in the films (bacterial counts)
Settings: GA concentrations studied, in gelatin films
Excerpt: The cross-linking agent used is preferably, but not exclusively, glutaraldehyde (GA), due to its high efficiency stabilising collagen derivatives, its high reaction rate, and its ability to modify the physico-chemical properties of gelatin-based gels.

`O=CCCCC=O` [GA, glutaraldehyde] was tested, and the bactericidal effect was “do not have an observable bactericidal effect”.
